In patent publication US8604001B2, “Use of sulfated oligosaccharides as slimming cosmetic ingredients” (priority 2007, dated 2013):

Key:
normal human adipocytes [1] = assay: Inhibition of lipogenesis ([2-14C] acetate incorporation into lipids) in suspensions of human adipocytes; assay type: cell-based; settings: 1 mM; for cpm (radioactivity of extracted lipids): 1 h preincubation, 4 h with [2-14C] acetate, control 472253
Method: The ex vivo inhibition of lipogenesis was evaluated in suspensions of human adipocytes which were isolated from a sampling taken during an abdominal plasty performed on a person. The adipocytes suspension was incubated for one hour at 37° C. with 3 or 5% of a solution of sulfated oligosaccharides prepared according to example 1 (hydrolysis time: 16 hours), or with a standard study solution (1 mM theophylline or caffeine), on in the absence of these solutions (control). Each assay was done in triplicate. A radioactive marker [2-^14C] acetate was then added to the various assays at a concentration of 2.5 μCi/mL. After 4 hours of incubation at 37° C., the lipids were extracted by a methanol/chloroform/water mixture and then dehydrated. The radioactivity, expressed in counts per minute (cpm), is then quantified through liquid scintigraphy (LKB 1210 Rackbeta). The statistical analysis was performed according to the Dunnett's multiple comparison test.

normal human adipocytes [2] = assay: Stimulation of lipolysis (Non-Esterified Fatty Acids released) in suspensions of human adipocytes; assay type: cell-based; settings: 1 mM; for NEFA: 2 hours at 37° C., control 96
Method: The lipolysis stimulation activity was evaluated in suspensions of human adipocytes isolated from a sample taken during an abdominal plasty performed on a person. The adipocytes suspension was incubated, for 2 hours at 37° C. with 3 or 5% of a solution of sulfated oligosaccharides prepared according to example 1 (16 hours of, hydrolysis time) in percentage of total weight of the culture, or with standard study solutions (1 mM theophylline or caffeine) or in the absence of solutions (control). Each assay was performed 6 times. At the end of the incubation period, the Non-Esterified Fatty Acids (NEFA) which were; present in the incubation mediums were measured with commercially available dosage kits (OXOID 46 551).

[3] = system: thighs of healthy volunteers; assay: Slimming effect of hydro-alcohol gels: thigh circumference measured in centimeters over 8 weeks; settings: for change of thigh circumference versus T0: hydro-alcohol gel applied twice a day, 25 volunteers

SMILES	% Control (lipogenesis) (normal human adipocytes [1]) [%]	cpm (radioactivity of extracted lipids) (normal human adipocytes [1]) [cpm]	% Control (lipolysis, NEFA) (normal human adipocytes [2]) [%]	NEFA (normal human adipocytes [2]) [µM]	change of thigh circumference versus T0 ([3]; 14 days) [cm]	change of thigh circumference versus T0 ([3]; 28 days) [cm]	average decrease of the circumference of the thigh ([3]; 56 days, gel applied twice a day) [cm]	change of thigh circumference versus T0 ([3]; 56 days) [cm]	slimming effect (in words) ([3]; after 14 treatment days)
Cn1c(=O)c2[nH]cnc2n(C)c1=O [Theophylline, theophylline]	6	27225	560	537					
Cn1c(=O)c2c(ncn2C)n(C)c1=O [Caffeine, caffeine]	4	20741	547	525	0	−0.1	0.3	−0.3	no slimming effect
